PubChem BioAssay AID330 (DTP/NCI, 2004)
Values joined by “and” are separate entries in the source; they are usually repeats but may differ in a detail not shown here. Equal values may be shown once. Inconclusive results and toxic doses are left out.

System: P388 leukemia ip, CD2F1 mice, survival T/C
Assay: NCI In Vivo Anticancer Drug Screen. Data for tumor model P388 Leukemia (intraperitoneal) in CD2F1 (CDF1) mice
Conditions: endpoint: median survival time, higher = longer survival
Procedure, shortened: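 Mice carrying the transplanted tumor received test compound or vehicle. Survival was recorded in each group, and the value is the treated-group measurement divided by that of the vehicle-treated control group.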

Which results are given for `CC1OC(=O)C(C(C)C)NC(=O)C(C(C)C)OC(=O)C(C(C)C)NC(=O)C(C)OC(=O)C(C(C)C)NC(=O)C(C(C)C)OC(=O)C(C(C)C)NC(=O)C(C)OC(=O)C(C(C)C)NC(=O)C(C(C)C)OC(=O)C(C(C)C)NC1=O` (stereo not drawn)?
T/C (dose: 0.03 mg/kg/injection, schedule: Q01DX009 (ip), vehicle: other): 113 % of control; T/C (dose: 0.1 mg/kg/injection, schedule: Q01DX005 (ip), vehicle: DMSO): 110 % of control; T/C (dose: 0.1 mg/kg/injection, schedule: Q01DX005 (ip), vehicle: other): 108 % of control; T/C (dose: 0.12 mg/kg/injection, schedule: Q01DX009 (oral), vehicle: other): 102 % of control; T/C (dose: 0.2 mg/kg/injection, schedule: Q01DX005 (ip), vehicle: DMSO): 116 % of control; T/C (dose: 0.2 mg/kg/injection, schedule: Q01DX005 (ip), vehicle: other): 110 % of control; T/C (dose: 0.23 mg/kg/injection, schedule: Q01DX009 (oral), vehicle: other): 96 % of control; T/C (dose: 0.25 mg/kg/injection, schedule: Q01DX009 (ip), vehicle: other): 154 % of control; T/C (dose: 0.4 mg/kg/injection, schedule: Q01DX005 (ip), vehicle: other): 120 % of control; T/C (dose: 0.47 mg/kg/injection, schedule: Q01DX009 (ip), vehicle: Klucel (hydroxypropylcellulose) (HPC)): 155 % of control; T/C (dose: 0.47 mg/kg/injection, schedule: Q01DX009 (oral), vehicle: other): 98 % of control; T/C (dose: 0.5 mg/kg/injection, schedule: Q01DX009 (ip), vehicle: Klucel (hydroxypropylcellulose) (HPC)): 116 % of control; T/C (dose: 0.5 mg/kg/injection, schedule: Q01DX009 (ip), vehicle: other): 100 % of control; T/C (dose: 0.62 mg/kg/injection, schedule: Q01DX009 (ip), vehicle: saline): 111 % of control and 97 % of control; T/C (dose: 0.94 mg/kg/injection, schedule: Q01DX009 (oral), vehicle: Klucel (hydroxypropylcellulose) (HPC)): 103 % of control; T/C (dose: 0.94 mg/kg/injection, schedule: Q01DX009 (oral), vehicle: other): 93 % of control; T/C (dose: 1.0 mg/kg/injection, schedule: Q01DX005 (ip), vehicle: Klucel (hydroxypropylcellulose) (HPC)): 155 % of control; T/C (dose: 1.25 mg/kg/injection, schedule: Q01DX009 (ip), vehicle: saline): 94 % of control; T/C (dose: 1.88 mg/kg/injection, schedule: Q01DX009 (ip), vehicle: Klucel (hydroxypropylcellulose) (HPC)): 161 % of control; T/C (dose: 1.88 mg/kg/injection, schedule: Q01DX009 (oral), vehicle: Klucel (hydroxypropylcellulose) (HPC)): 108 % of control; T/C (dose: 2.0 mg/kg/injection, schedule: Q01DX005 (ip), vehicle: Klucel (hydroxypropylcellulose) (HPC)): 165 % of control; T/C (dose: 2.5 mg/kg/injection, schedule: Q01DX009 (ip), vehicle: saline): 87 % of control and 94 % of control; T/C (dose: 3.75 mg/kg/injection, schedule: Q01DX009 (oral), vehicle: Klucel (hydroxypropylcellulose) (HPC)): 106 % of control; T/C (dose: 4.0 mg/kg/injection, schedule: Q01DX005 (ip), vehicle: Klucel (hydroxypropylcellulose) (HPC)): 160 % of control and 162 % of control; T/C (dose: 5.0 mg/kg/injection, schedule: Q01DX009 (ip), vehicle: Klucel (hydroxypropylcellulose) (HPC)): 162 % of control; T/C (dose: 5.0 mg/kg/injection, schedule: Q01DX009 (ip), vehicle: saline with Tween-80): 106 % of control; T/C (dose: 5.0 mg/kg/injection, schedule: Q01DX009 (ip), vehicle: saline): 87 % of control and 93 % of control; T/C (dose: 7.5 mg/kg/injection, schedule: Q01DX009 (ip), vehicle: Klucel (hydroxypropylcellulose) (HPC)): 88 % of control; T/C (dose: 7.5 mg/kg/injection, schedule: Q01DX009 (oral), vehicle: Klucel (hydroxypropylcellulose) (HPC)): 88 % of control; T/C (dose: 8.0 mg/kg/injection, schedule: Q01DX005 (ip), vehicle: Klucel (hydroxypropylcellulose) (HPC)): 159 % of control and 162 % of control; T/C (dose: 10.0 mg/kg/injection, schedule: Q01DX009 (ip), vehicle: Klucel (hydroxypropylcellulose) (HPC)): 97 % of control; T/C (dose: 10.0 mg/kg/injection, schedule: Q04DX003 (ip), vehicle: saline with Tween-80): 151 % of control and 167 % of control; T/C (dose: 16.0 mg/kg/injection, schedule: Q01DX005 (ip), vehicle: Klucel (hydroxypropylcellulose) (HPC)): 163 % of control; T/C (dose: 20.0 mg/kg/injection, schedule: Q04DX003 (ip), vehicle: saline with Tween-80): 108 % of control; T/C (dose: 6.25 micrograms/kg/injection, schedule: Q03HX008 (ip), vehicle: other): 101 % of control; T/C (dose: 6.25 micrograms/kg/injection, schedule: Q03HX020 (ip), vehicle: other): 118 % of control; T/C (dose: 6.25 micrograms/kg/injection, schedule: Q12HX004 (iv), vehicle: other): 101 % of control; T/C (dose: 6.25 micrograms/kg/injection, schedule: Q12HX010 (ip), vehicle: other): 111 % of control; T/C (dose: 6.25 micrograms/kg/injection, schedule: Q12HX010 (iv), vehicle: other): 102 % of control; T/C (dose: 12.5 micrograms/kg/injection, schedule: Q01DX001 (iv), vehicle: other): 97 % of control; T/C (dose: 12.5 micrograms/kg/injection, schedule: Q01DX005 (ip), vehicle: other): 103 % of control and 107 % of control; T/C (dose: 12.5 micrograms/kg/injection, schedule: Q01DX005 (iv), vehicle: other): 99 % of control and 100 % of control; T/C (dose: 12.5 micrograms/kg/injection, schedule: Q03HX008 (ip), vehicle: other): 118 % of control; T/C (dose: 12.5 micrograms/kg/injection, schedule: Q03HX020 (ip), vehicle: other): 119 % of control; T/C (dose: 12.5 micrograms/kg/injection, schedule: Q04DX002 (iv), vehicle: other): 101 % of control; T/C (dose: 12.5 micrograms/kg/injection, schedule: Q12HX004 (ip), vehicle: other): 110 % of control; T/C (dose: 12.5 micrograms/kg/injection, schedule: Q12HX004 (iv), vehicle: other): 103 % of control; T/C (dose: 12.5 micrograms/kg/injection, schedule: Q12HX010 (ip), vehicle: other): 123 % of control; T/C (dose: 12.5 micrograms/kg/injection, schedule: Q12HX010 (iv), vehicle: other): 103 % of control; T/C (dose: 25.0 micrograms/kg/injection, schedule: Q01DX001 (ip), vehicle: other): 98 % of control; T/C (dose: 25.0 micrograms/kg/injection, schedule: Q01DX001 (iv), vehicle: other): 103 % of control; T/C (dose: 25.0 micrograms/kg/injection, schedule: Q01DX005 (ip), vehicle: other): 115 % of control and 116 % of control; T/C (dose: 25.0 micrograms/kg/injection, schedule: Q01DX005 (iv), vehicle: other): 99 % of control and 100 % of control; T/C (dose: 25.0 micrograms/kg/injection, schedule: Q03HX008 (ip), vehicle: other): 113 % of control; T/C (dose: 25.0 micrograms/kg/injection, schedule: Q03HX020 (ip), vehicle: other): 124 % of control; T/C (dose: 25.0 micrograms/kg/injection, schedule: Q04DX002 (ip), vehicle: other): 102 % of control; T/C (dose: 25.0 micrograms/kg/injection, schedule: Q04DX002 (iv), vehicle: other): 101 % of control; T/C (dose: 25.0 micrograms/kg/injection, schedule: Q12HX004 (ip), vehicle: other): 100 % of control; T/C (dose: 25.0 micrograms/kg/injection, schedule: Q12HX004 (iv), vehicle: other): 98 % of control; T/C (dose: 25.0 micrograms/kg/injection, schedule: Q12HX010 (ip), vehicle: other): 121 % of control; T/C (dose: 25.0 micrograms/kg/injection, schedule: Q12HX010 (iv), vehicle: other): 103 % of control; T/C (dose: 50.0 micrograms/kg/injection, schedule: Q01DX001 (ip), vehicle: other): 100 % of control; T/C (dose: 50.0 micrograms/kg/injection, schedule: Q01DX001 (iv), vehicle: other): 101 % of control; T/C (dose: 50.0 micrograms/kg/injection, schedule: Q01DX005 (ip), vehicle: other): 118 % of control and 120 % of control; T/C (dose: 50.0 micrograms/kg/injection, schedule: Q01DX005 (iv), vehicle: other): 98 % of control and 103 % of control; T/C (dose: 50.0 micrograms/kg/injection, schedule: Q04DX002 (ip), vehicle: other): 109 % of control; T/C (dose: 50.0 micrograms/kg/injection, schedule: Q04DX002 (iv), vehicle: other): 100 % of control; T/C (dose: 50.0 micrograms/kg/injection, schedule: Q12HX004 (ip), vehicle: other): 113 % of control; T/C (dose: 50.0 micrograms/kg/injection, schedule: Q12HX004 (iv), vehicle: other): 104 % of control; T/C (dose: 50.0 micrograms/kg/injection, schedule: Q12HX010 (iv), vehicle: other): 101 % of control; T/C (dose: 100.0 micrograms/kg/injection, schedule: Q01DX001 (ip), vehicle: other): 100 % of control; T/C (dose: 100.0 micrograms/kg/injection, schedule: Q01DX001 (iv), vehicle: other): 100 % of control; T/C (dose: 100.0 micrograms/kg/injection, schedule: Q01DX005 (iv), vehicle: other): 101 % of control; T/C (dose: 100.0 micrograms/kg/injection, schedule: Q03HX020 (ip), vehicle: other): 161 % of control; T/C (dose: 100.0 micrograms/kg/injection, schedule: Q04DX002 (ip), vehicle: other): 110 % of control; T/C (dose: 100.0 micrograms/kg/injection, schedule: Q04DX002 (iv), vehicle: other): 101 % of control; T/C (dose: 100.0 micrograms/kg/injection, schedule: Q12HX004 (ip), vehicle: other): 124 % of control; T/C (dose: 100.0 micrograms/kg/injection, schedule: Q12HX010 (iv), vehicle: other): 102 % of control; T/C (dose: 200.0 micrograms/kg/injection, schedule: Q01DX001 (ip), vehicle: other): 103 % of control; T/C (dose: 200.0 micrograms/kg/injection, schedule: Q03HX008 (ip), vehicle: other): 120 % of control; T/C (dose: 200.0 micrograms/kg/injection, schedule: Q12HX010 (ip), vehicle: other): 153 % of control; T/C (dose: 400.0 micrograms/kg/injection, schedule: Q01DX001 (ip), vehicle: other): 111 % of control; T/C (dose: 800.0 micrograms/kg/injection, schedule: Q01DX001 (ip), vehicle: other): 114 % of control
